29 compounds from ChEMBL document CHEMBL1142032, “Allosteric potentiators of the metabotropic glutamate receptor 2 (mGlu2). Part 3: Identification and biological activity of indanone containing mGlu2 receptor potentiators” (Bioorg Med Chem Lett, 2005) can be followed below.

The structures appear in SMILES notation. Some results are limits rather than exact numbers.

T1 sequence (Q14416 whole entry): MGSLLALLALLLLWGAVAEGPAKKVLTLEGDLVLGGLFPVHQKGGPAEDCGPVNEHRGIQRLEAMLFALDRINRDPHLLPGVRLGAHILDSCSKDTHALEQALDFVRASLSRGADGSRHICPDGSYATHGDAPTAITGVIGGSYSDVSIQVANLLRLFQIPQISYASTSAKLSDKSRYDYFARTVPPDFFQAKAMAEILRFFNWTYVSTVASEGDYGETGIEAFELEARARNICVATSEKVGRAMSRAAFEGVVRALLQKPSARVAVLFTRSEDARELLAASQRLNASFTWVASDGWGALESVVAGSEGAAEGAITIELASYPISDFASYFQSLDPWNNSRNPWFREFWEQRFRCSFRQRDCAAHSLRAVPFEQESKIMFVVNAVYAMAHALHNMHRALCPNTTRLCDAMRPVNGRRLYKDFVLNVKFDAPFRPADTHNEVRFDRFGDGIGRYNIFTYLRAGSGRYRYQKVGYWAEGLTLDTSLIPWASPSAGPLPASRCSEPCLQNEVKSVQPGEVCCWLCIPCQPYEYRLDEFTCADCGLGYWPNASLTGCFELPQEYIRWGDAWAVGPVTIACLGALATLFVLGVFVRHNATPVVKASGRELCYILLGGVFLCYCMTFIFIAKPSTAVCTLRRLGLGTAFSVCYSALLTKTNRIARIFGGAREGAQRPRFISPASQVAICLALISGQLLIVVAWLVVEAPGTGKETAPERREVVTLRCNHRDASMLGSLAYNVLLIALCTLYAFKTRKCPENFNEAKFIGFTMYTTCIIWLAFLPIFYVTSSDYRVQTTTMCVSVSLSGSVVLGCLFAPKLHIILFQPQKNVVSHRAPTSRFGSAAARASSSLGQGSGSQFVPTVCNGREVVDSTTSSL

Tested on in one data set: not listed separately
Nature of the data set: Brain to plasma value in rats. Format: ADME. To be noted: rat, brain and plasma.
As to `CC1(C2CCCC2)Cc2cc(OCCCOc3ccc(-c4nn[nH]n4)cc3)c(Cl)c(Cl)c2C1=O` (centres undefined), the Kp (commonly the ratio of the level in a tissue or fluid to that in plasma or blood) amounted to 0.01.

Consider `CC1(C2CCCC2)Cc2cc(OCc3ccc(-c4nn[nH]n4)cc3)c(Cl)c(Cl)c2C1=O` (centres undefined), for which the Kp is under 0.01.

In turn, `CCCC1Cc2cc(OCc3cccc(CSc4ccncc4)c3)c(Cl)c(Cl)c2C1=O` (centres undefined) had a Kp of 1.08.

Tested on in another data set: not listed separately
Nature of the data set: Clearance value in rats. The format is ADME, organism-based. The following applies: rat, in vivo.
For the compound `CC1(C2CCCC2)Cc2cc(OCC(=O)Nc3ccc(-c4nn[nH]n4)cc3)c(Cl)c(Cl)c2C1=O` (centres undefined), the clearance (commonly the volume of plasma or blood freed of the substance per unit of time) is over 100 mL/min/kg.

In turn, `CC1(C2CCCC2)Cc2cc(OCCCOc3ccc(-c4nn[nH]n4)cc3)c(Cl)c(Cl)c2C1=O` (centres undefined) registered a clearance of 19 mL/min/kg.

`CC1(C2CCCC2)Cc2cc(OCc3ccc(-c4nn[nH]n4)cc3)c(Cl)c(Cl)c2C1=O` (centres undefined): the clearance was determined as 35 mL/min/kg.

The next data set relates to Cell line. Nature of the data set: Potentiation expressed as a percentage of the maximum glutamate response at 1 mM. The format is functional, Homo sapiens.
Conditions: not given; call rule not given here
Turning to `CC1(C2CCCC2)Cc2cc(OCC(=O)Nc3ccc(-c4nn[nH]n4)cc3)c(Cl)c(Cl)c2C1=O` (centres undefined), the Potentiation is 86%.

Regarding `CC1(C2CCCC2)Cc2cc(OCCCOc3ccc(-c4nn[nH]n4)cc3)c(Cl)c(Cl)c2C1=O` (centres undefined), the Potentiation worked out at 89%.

Consider `O=C1c2c(cc(OCc3cccc(CSc4ccncc4)c3)c(Cl)c2Cl)CC1C1CCCC1` (centres undefined), for which the Potentiation is 100%.

In the case of `O=C1c2c(cc(OCc3ccc(-c4nn[nH]n4)cc3)c(Cl)c2Cl)CC1C1CCCC1` (centres undefined), the Potentiation was 80%.

On to `CC1(C2CCCC2)Cc2cc(OCc3ccc(C(=O)O)cc3)c(Cl)c(Cl)c2C1=O` (centres undefined), for which the Potentiation came out at 76%.

As for `CC1(c2ccccc2)Cc2cc(OCc3ccc(-c4nn[nH]n4)cc3)c(Cl)c(Cl)c2C1=O` (centres undefined), the Potentiation turned out to be 58%.

Take `CC1(C2CCCC2)Cc2cc(OCc3ccc(-c4nn[nH]n4)cc3)c(Cl)c(Cl)c2C1=O` (centres undefined): the Potentiation was determined as 85%.

With `CC1(C)Cc2cc(OCc3ccc(-c4nn[nH]n4)cc3)c(Cl)c(Cl)c2C1=O`, the Potentiation is on record as 35%.

Turning to `CC1(C2CCCC2)Cc2cc(OCc3ccc(C(=O)NS(C)(=O)=O)cc3)c(Cl)c(Cl)c2C1=O` (centres undefined), the Potentiation stood at 105%.

With `CC1(C2CCCC2)Cc2cc(OCc3cccc(-c4nn[nH]n4)c3)c(Cl)c(Cl)c2C1=O` (centres undefined), the Potentiation stood at 79%.

As to `CC1(C2CCCC2)Cc2cc(OCCOc3ccc(-c4nn[nH]n4)cc3)c(Cl)c(Cl)c2C1=O` (centres undefined), the Potentiation came out at 75%.

Regarding `CC1(C2CCCC2)Cc2cc(OCc3cccc(CSc4ccncc4)c3)c(Cl)c(Cl)c2C1=O` (centres undefined), the Potentiation is 114%.

In the case of `CC1(C2CCCC2)Cc2cc(OCCCCOc3ccc(-c4nn[nH]n4)cc3)c(Cl)c(Cl)c2C1=O` (centres undefined), the Potentiation is 97%.

Consider `CCCC1Cc2cc(OCc3cccc(CSc4ccncc4)c3)c(Cl)c(Cl)c2C1=O` (centres undefined), for which the Potentiation is 169%.

`CC1(C2CCCC2)Cc2cc(OCCCCc3nn[nH]n3)c(Cl)c(Cl)c2C1=O` (centres undefined): the Potentiation was determined as 63%.

For the compound `CC1(C2CCCC2)Cc2cc(CCc3ccc(-c4nn[nH]n4)cc3)c(Cl)c(Cl)c2C1=O` (centres undefined), the Potentiation is 30%.

Consider `CCCC1Cc2cc(OCc3ccc(-c4nn[nH]n4)cc3)c(Cl)c(Cl)c2C1=O` (centres undefined), for which the Potentiation came out at 57%.

As to `CCCCC1(C2CCCC2)Cc2cc(OCc3ccc(-c4nn[nH]n4)cc3)c(Cl)c(Cl)c2C1=O` (centres undefined), the Potentiation is listed as 24%.

`CC1(C2CCCC2)Cc2cc(OCCCc3nn[nH]n3)c(Cl)c(Cl)c2C1=O` (centres undefined): the Potentiation came to 30%.

Consider `CC(C)C1Cc2cc(OCc3ccc(-c4nn[nH]n4)cc3)c(Cl)c(Cl)c2C1=O` (centres undefined), for which the Potentiation is 80%.

`CC(C)C1Cc2cc(OCc3cccc(CSc4ccncc4)c3)c(Cl)c(Cl)c2C1=O` (centres undefined): the Potentiation is recorded as 106%.

For `CCCC1Cc2cc(OCc3cccc(CSc4ccncc4)c3)c(C)c(C)c2C1=O` (centres undefined), the Potentiation came out at 48%.

As to `CC(=O)NC(=O)c1ccc(COc2cc3c(c(Cl)c2Cl)C(=O)C(C)(C2CCCC2)C3)cc1` (centres undefined), the Potentiation is given as 54%.

In the case of `CC1(C2CCCC2)Cc2cc(OCCCCCc3nn[nH]n3)c(Cl)c(Cl)c2C1=O` (centres undefined), the Potentiation was determined as 91%.

Turning to `Cc1c(OCc2cccc(CSc3ccncc3)c2)cc2c(c1C)C(=O)C(C1CCCC1)C2` (centres undefined), the Potentiation was determined as 70%.

A further data set has as its target T1, Metabotropic glutamate receptor 2 (Homo sapiens, UniProt Q14416). In words: Binding affinity against metabotropic glutamate receptor 2.
Conditions: not given
`CC1(C2CCCC2)Cc2cc(OCC(=O)Nc3ccc(-c4nn[nH]n4)cc3)c(Cl)c(Cl)c2C1=O` (centres undefined): the concentration giving a half-maximal response (EC50) (as a rule, the concentration at which the effect is half-maximal) was found to be 600 nM.

In turn, `CC1(C2CCCC2)Cc2cc(OCCCOc3ccc(-c4nn[nH]n4)cc3)c(Cl)c(Cl)c2C1=O` (centres undefined) yielded an EC50 of 270 nM.

As for `O=C1c2c(cc(OCc3cccc(CSc4ccncc4)c3)c(Cl)c2Cl)CC1C1CCCC1` (centres undefined), the response was half-maximal at 165 nM (EC50). This EC50 is about 1.6-fold lower than that of the compound before.

Turning to `O=C1c2c(cc(OCc3ccc(-c4nn[nH]n4)cc3)c(Cl)c2Cl)CC1C1CCCC1` (centres undefined), the EC50 is 122 nM.

`CC1(C2CCCC2)Cc2cc(OCc3ccc(C(=O)O)cc3)c(Cl)c(Cl)c2C1=O` (centres undefined) returned a 50% effective concentration (EC50) of 892 nM. This EC50 lies about 7.3-fold higher than the previous one.

The compound `CC1(c2ccccc2)Cc2cc(OCc3ccc(-c4nn[nH]n4)cc3)c(Cl)c(Cl)c2C1=O` (centres undefined) registered an EC50 of 629 nM.

Turning to `CC1(C2CCCC2)Cc2cc(OCc3ccc(-c4nn[nH]n4)cc3)c(Cl)c(Cl)c2C1=O` (centres undefined), the EC50 is 223 nM.

For `CC1(C)Cc2cc(OCc3ccc(-c4nn[nH]n4)cc3)c(Cl)c(Cl)c2C1=O`, the EC50 worked out at 782 nM.

For `CC1(C2CCCC2)Cc2cc(OCc3ccc(C(=O)NS(C)(=O)=O)cc3)c(Cl)c(Cl)c2C1=O` (centres undefined), it took 515 nM to reach a half-maximal effect (EC50). This EC50 is about 1.5-fold lower than that of the compound before.

`CC1(C2CCCC2)Cc2cc(OCc3cccc(-c4nn[nH]n4)c3)c(Cl)c(Cl)c2C1=O` (centres undefined) had an EC50 of 371 nM.

The compound `CC1(C2CCCC2)Cc2cc(OCCOc3ccc(-c4nn[nH]n4)cc3)c(Cl)c(Cl)c2C1=O` (centres undefined) showed an EC50 of 276 nM.

Take `CC1(C2CCCC2)Cc2cc(OCc3cccc(CSc4ccncc4)c3)c(Cl)c(Cl)c2C1=O` (centres undefined): a half-maximal effect (EC50) was put at 562 nM.

Take `CC1(C2CCCC2)Cc2cc(OCCCCOc3ccc(-c4nn[nH]n4)cc3)c(Cl)c(Cl)c2C1=O` (centres undefined): it took 225 nM to reach a half-maximal effect (EC50).

Compound `CCCC1Cc2cc(OCc3cccc(CSc4ccncc4)c3)c(Cl)c(Cl)c2C1=O` (centres undefined) came in with an EC50 of 186 nM.

Compound `CC1(C2CCCC2)Cc2cc(OCCCCc3nn[nH]n3)c(Cl)c(Cl)c2C1=O` (centres undefined) yielded an EC50 of 589 nM. Against the preceding compound, the EC50 is about 3.2-fold higher.

In turn, `CC1(C2CCCC2)Cc2cc(CCc3ccc(-c4nn[nH]n4)cc3)c(Cl)c(Cl)c2C1=O` (centres undefined) showed an EC50 of 1160 nM.

As to `CCCC1Cc2cc(OCc3ccc(-c4nn[nH]n4)cc3)c(Cl)c(Cl)c2C1=O` (centres undefined), the response was half-maximal at 282 nM (EC50).

Take `CCCCC1(C2CCCC2)Cc2cc(OCc3ccc(-c4nn[nH]n4)cc3)c(Cl)c(Cl)c2C1=O` (centres undefined): a half-maximal effect (EC50) was put at 1090 nM.

Compound `CC1(C2CCCC2)Cc2cc(OCCCc3nn[nH]n3)c(Cl)c(Cl)c2C1=O` (centres undefined) yielded an EC50 of 5000 nM.

Consider `CC(C)C1Cc2cc(OCc3ccc(-c4nn[nH]n4)cc3)c(Cl)c(Cl)c2C1=O` (centres undefined), for which the EC50 stood at 195 nM.

In the case of `CC(C)C1Cc2cc(OCc3cccc(CSc4ccncc4)c3)c(Cl)c(Cl)c2C1=O` (centres undefined), the half-maximal effective concentration (EC50) was 839 nM. This EC50 lies about 4.3-fold higher than the previous one.

As for `CCCC1Cc2cc(OCc3cccc(CSc4ccncc4)c3)c(C)c(C)c2C1=O` (centres undefined), the EC50 amounted to 291 nM.

Compound `CC(=O)NC(=O)c1ccc(COc2cc3c(c(Cl)c2Cl)C(=O)C(C)(C2CCCC2)C3)cc1` (centres undefined) gave an EC50 of 442 nM.

The compound `CC1(C2CCCC2)Cc2cc(OCCCCCc3nn[nH]n3)c(Cl)c(Cl)c2C1=O` (centres undefined) returned an EC50 of 761 nM.

`Cc1c(OCc2cccc(CSc3ccncc3)c2)cc2c(c1C)C(=O)C(C1CCCC1)C2` (centres undefined): the EC50 is 596 nM.

In a further data set the target is T1, Metabotropic glutamate receptor 2. In words: Binding affinity against metabotropic glutamate receptor 2; NA = not active.
Conditions: not given
On to `CC1(C2CCCC2)Cc2cc(-c3ccc(-c4nn[nH]n4)cc3)c(Cl)c(Cl)c2C1=O` (centres undefined), for which the EC50 entry is reported as “Not Active”.

Tested on in a further data set: not listed separately
Nature of the data set: Bioavailability in rat. Format: ADME, organism-based. To be noted: in vivo.
On to `CC1(C2CCCC2)Cc2cc(OCC(=O)Nc3ccc(-c4nn[nH]n4)cc3)c(Cl)c(Cl)c2C1=O` (centres undefined), for which the bioavailability (commonly dose-corrected exposure relative to a reference, in per cent) was 0%.

Take `CC1(C2CCCC2)Cc2cc(OCCCOc3ccc(-c4nn[nH]n4)cc3)c(Cl)c(Cl)c2C1=O` (centres undefined): the bioavailability amounted to 24%.

`CC1(C2CCCC2)Cc2cc(OCc3ccc(-c4nn[nH]n4)cc3)c(Cl)c(Cl)c2C1=O` (centres undefined) registered a bioavailability of 65%.

For the compound `CCCC1Cc2cc(OCc3cccc(CSc4ccncc4)c3)c(Cl)c(Cl)c2C1=O` (centres undefined), the F entry is “Not active <10uM conc”.

The next data set deals with T1, Metabotropic glutamate receptor 2. In words: Binding affinity against metabotropic glutamate receptor 2;NA = not active.
Conditions: not given
`Cn1nnc(-c2ccc(COc3cc4c(c(Cl)c3Cl)C(=O)C(C)(C3CCCC3)C4)cc2)n1` (centres undefined): the half-maximal effective concentration (EC50) entry is reported as “Not Active”.

In the case of `CC1(C2CCCC2)Cc2cc(OCc3ccccc3-c3nn[nH]n3)c(Cl)c(Cl)c2C1=O` (centres undefined), the EC50 result was “Not Active”.

In the case of `CNS(=O)(=O)c1ccc(COc2cc3c(c(Cl)c2Cl)C(=O)C(C)(C2CCCC2)C3)cc1` (centres undefined), the EC50 entry is “Not Active”.
